From patent US10494380B2, “Nitrogen-containing tricyclic derivatives having HIV replication inhibitory activity” (priority 2015, dated 2019)

test system: T125A mutant virus (HIV-1 NL-432 recombinant molecular clone, IN gene); assay: HIV replication inhibition assay against integrase 124/125 mutant virus (Test Example 2); format: cell-based; settings: Human immunodeficiency virus 1, MT4, read-out: EC50 against T125A mutant virus, T125A mutant virus (HIV-1 NL-432 IN gene), MT-4 cells, MTT
Procedure: Persistently HIV (HTLV-IIIB strain) infected human T cell strain Molt-4 clone8 was cultured in RPMI-1640 medium supplemented with 10% fetal bovine serum and the supernatant was filtered, then the virus titer was measured and stored at −80° C. Polymorphic mutations in HIV-1-infected patients have been observed in amino acids 124 and 125 on the HIV-1 integrase (IN) gene. A point mutation was introduced on the amino acids 124 and/or 125 of IN gene of the HIV-1 NL-432 recombinant molecular clone to generate a mutant virus plasmid construct. These mutant virus plasmids were transfected into 293T cells, and after two days, the supernatant was filtered and then the virus titer was measured and stored at −80° C. Each anti-HIV active substance was diluted with culture medium described above to the designated concentration, which was dispensed into 96-well microtiter plate by 50 μL. Next, 100 μL of MT-4 cell suspension (2.5×10^4 cells) was dispensed into each well, then 50 μl of HIV-containing supernatant diluted with culture medium described above was added thereto (60 pfu (plaque forming unit)).
Cells were cultured at 37° C. in CO2 incubator for four days, then 30 μL of MTT (3-(4,5-dimethylthiazole-2-yl)-2,5-diphenyltetrazolyum bromide) reagent (5 mg/mL in PBS) was added to all wells followed by incubation for 1 hour. In this step, MTT was reduced to insoluble formazan in living cells. To elute generated formazan, 150 μL of the culture supernatant was removed from all wells, then 150 μL of cell lysis solution (10% Triton X-100 and 0.4% (v/v)-HCl containing isopropanol) was added thereto, followed by shaking with a plate mixer. The formazan was measured with micro plate reader at OD: 560 nm and 690 nm (reference wavelength) and the result was compared with the reference wells. EC50 means the compound concentration at which 50% of cytotoxicity caused by virus infection is inhibited.

Compared with Cc1c([C@H](OC(C)(C)C)C(=O)O)c(-c2ccc(Cl)cc2)c2cc(C)n3c2c1N(C)C(c1ccccc1)C3 (some centres unmarked) [Compound I-334], Cc1c([C@H](OC(C)(C)C)C(=O)O)c(-c2ccc(Cl)cc2)c2cc(C)n3c2c1N(c1ccccn1)CC3 [Compound I-125] is 11-fold lower in EC50: 93 nM for the first, 8.2 nM for the second.

Cc1ccc(-c2c([C@H](OC(C)(C)C)C(=O)O)c(C)c3c4c2cc(C)n4CCN3c2ncc(Oc3ccccn3)cn2)cc1 [Compound I-339] and Cc1ccc(-c2c([C@H](OC(C)(C)C)C(=O)O)c(C)c3c4c2cc(C)n4CCN3c2ncc(Oc3cccnn3)cn2)cc1 [Compound I-342] are within 1.5-fold of each other in EC50: 11 nM for the first, 13 nM for the second.

Compared with [2H]C([2H])([2H])N1c2c(C)c([C@H](OC(C)(C)C)C(=O)O)c(-c3ccc(F)cc3)c3cc(C)n(c23)C([2H])([2H])C1([2H])[2H] [Compound I-106], [2H]C([2H])([2H])N1c2c(C)c([C@H](OC(C)(C)C)C(=O)O)c(-c3ccc(Cl)cc3)c3cc(C)n(c23)C([2H])([2H])C1([2H])[2H] [Compound I-103] is 3.2-fold lower in EC50: 11 nM for the first, 3.4 nM for the second.

COCCN1CCn2c(C)cc3c(-c4ccc(Cl)cc4)c([C@H](OC(C)(C)C)C(=O)O)c(C)c1c32 [Compound I-076] and COCCN1CCn2c(C)cc3c(-c4ccc(F)cc4)c([C@H](OC(C)(C)C)C(=O)O)c(C)c1c32 [Compound I-089] are within 1.5-fold of each other in EC50: 16 nM for the first, 18 nM for the second.

Going from Cc1c([C@H](OC(C)(C)C)C(=O)O)c(-c2ccc(Cl)cc2)c2cc(C)n3c2c1N(C)S(=O)(=O)C3 [Compound I-072] to Cc1c([C@H](OC(C)(C)C)C(=O)O)c(-c2ccc(Cl)cc2)c2cc(C)n3c2c1N(C)S(=O)(=O)CC3 [Compound I-071], the EC50 rises from 13 nM to 45 nM (3.5-fold). The first is the more potent here.

COc1ccc(-c2c([C@H](OC(C)(C)C)C(=O)O)c(C)c3c4c2cc(C)n4CCN3C)cc1 [Compound I-074] and Cc1c([C@H](OC(C)(C)C)C(=O)O)c(-c2ccc(C(F)F)cc2)c2cc(C)n3c2c1N(C)CC3 [Compound I-049] are within 1.5-fold of each other in EC50: 27 nM for the first, 22 nM for the second.

Cc1c([C@H](OC(C)(C)C)C(=O)O)c(-c2ccc(Cl)cc2)c2cc(C)n3c2c1N(Cc1cncnc1)CC3 [Compound I-153] and Cc1c([C@H](OC(C)(C)C)C(=O)O)c(-c2ccc(Cl)cc2)c2cc(C)n3c2c1N(c1ccc(F)cn1)CC3 [Compound I-154] are within 1.5-fold of each other in EC50: 11 nM for the first, 13 nM for the second.

Compared with COc1cnc(N2CCn3c(C)c(Cl)c4c(-c5ccc(C)cc5)c([C@H](OC(C)(C)C)C(=O)O)c(C)c2c43)nc1 [Compound I-323], COc1cnc(N2CCn3c(C)c(Cl)c4c(-c5ccc(C)cc5)c([C@H](OC(C)(C)CO)C(=O)O)c(C)c2c43)nc1 [Compound I-324] is 3.9-fold higher in EC50: 16 nM for the first, 63 nM for the second. The first is the more potent here.

Going from CCNC(=O)N1CCn2c(C)cc3c(-c4ccc(Cl)cc4)c([C@H](OC(C)(C)C)C(=O)O)c(C)c1c32 [Compound I-038] to CCOC(=O)N1CCn2c(C)cc3c(-c4ccc(Cl)cc4)c([C@H](OC(C)(C)C)C(=O)O)c(C)c1c32 [Compound I-064], the EC50 falls from 45 nM to 19 nM (2.4-fold).

Compared with [2H]C1([2H])N(C)c2c(C)c([C@H](OC(C)(C)C)C(=O)O)c(-c3ccc(Cl)cc3)c3cc(C)n(c23)C1([2H])[2H] [Compound I-066], [2H]C1([2H])N(C)c2c(C)c([C@H](OC(C)(C)C)C(=O)O)c(-c3ccc(Cl)cc3)c3cc(Cl)n(c23)C1([2H])[2H] [Compound I-115] is 2.8-fold higher in EC50: 4 nM for the first, 11 nM for the second. The first is the more potent here.

[2H]C1([2H])N(S(C)(=O)=O)c2c(C)c([C@H](OC(C)(C)C)C(=O)O)c(-c3ccc(Cl)cc3)c3c(F)c(C)n(c23)C1([2H])[2H] [Compound I-040] and [2H]C1([2H])N(C(=O)OC)c2c(C)c([C@H](OC(C)(C)C)C(=O)O)c(-c3ccc(Cl)cc3)c3cc(C)n(c23)C1([2H])[2H] [Compound I-097] are within 1.5-fold of each other in EC50: 11 nM for the first, 9.7 nM for the second.

Compared with Cc1c([C@H](OC(C)(C)C)C(=O)O)c(-c2ccc(Cl)cc2)c2cc(C)n3c2c1N(c1ncc(OC(C)C)cn1)CC3 [Compound I-261], Cc1c([C@H](OC(C)(C)C)C(=O)O)c(-c2ccc(F)cc2)c2cc(C)n3c2c1N(c1ncccn1)CC3 [Compound I-123] is 3.8-fold higher in EC50: 3.7 nM for the first, 14 nM for the second. The first is the more potent here.

Going from Cc1c([C@H](OC(C)(C)C)C(=O)O)c(-c2ccc(Cl)cc2)c2cc(C)n3c2c1NC(=O)C3C (some centres unmarked) [Compound I-054] to CC(=O)N1c2c(C)c([C@H](OC(C)(C)C)C(=O)O)c(-c3ccc(Cl)cc3)c3cc(C)n(c23)C[C@@H]1C [Compound I-046], the EC50 falls from 48 nM to 18 nM (2.7-fold). The second is the more potent here.

Cc1c([C@H](OC(C)(C)C)C(=O)O)c(-c2ccc(F)cc2)c2cc(Cl)n3c2c1N(C)CC3 [Compound I-114] and Cc1c([C@H](OC(C)(C)C)C(=O)O)c(-c2ccc(F)cc2)c2cc(C)n3c2c1N(S(C)(=O)=O)CC3 [Compound I-096] are within 1.5-fold of each other in EC50: 18 nM for the first, 19 nM for the second.

Cc1c([C@H](OC(C)(C)C)C(=O)O)c(-c2ccc(Cl)cc2)c2cc(C)n3c2c1N(CCN(C)C)CC3 [Compound I-075] and Cc1c([C@H](OC(C)(C)C)C(=O)O)c(-c2ccc(Cl)cc2)c2cc(C)n3c2c1N(CCN(C)C)[C@@H](C)C3 [Compound I-113] are within 1.5-fold of each other in EC50: 24 nM for the first, 22 nM for the second.

First: Cc1ccc(-c2c([C@H](OC(C)(C)C)C(=O)O)c(C)c3c4c2cc(C)n4CCN3CCN2CCOCC2)cc1 [Compound I-131]
Second: CC(=O)N(C)CCN1CCn2c(C)cc3c(-c4ccc(C)cc4)c([C@H](OC(C)(C)C)C(=O)O)c(C)c1c32 [Compound I-141]
The EC50 of the first is 2.7-fold lower: 15 nM for the first, 41 nM for the second. The first is the more potent here.

Going from Cc1c([C@H](OC(C)(C)C)C(=O)O)c(-c2ccc(Cl)cc2)c2ccn3c2c1N(S(C)(=O)=O)CC3 [Compound I-056] to Cc1c([C@H](OC(C)(C)C)C(=O)O)c(-c2ccc(Cl)cc2)c2cc(Cl)n3c2c1N(S(C)(=O)=O)CC3 [Compound I-094], the EC50 falls from 59 nM to 12 nM (4.9-fold). The second is the more potent here.

Compared with Cc1c([C@H](OC(C)(C)C)C(=O)O)c(-c2ccc(Cl)cc2)c2cc(C)n3c2c1N(C)CC3(C)C [Compound I-127], [2H]C([2H])([2H])N1CCn2c(C)cc3c(-c4ccc(Cl)cc4)c([C@H](OC(C)(C)C)C(=O)O)c(C)c1c32 [Compound I-104] is 3.9-fold lower in EC50: 16 nM for the first, 4.1 nM for the second. The second is the more potent here.

Going from Cc1c([C@H](OC(C)(C)C)C(=O)O)c(-c2ccc(Cl)cc2)c2cc(C)n3c2c1N(C1CCOCC1)CC3 [Compound I-149] to Cc1c([C@H](OC(C)(C)C)C(=O)O)c(-c2ccc(Cl)cc2)c2cc(C)n3c2c1N1C(=O)OCC[C@H]1C3 [Compound I-129], the EC50 rises from 15 nM to 89 nM (5.9-fold). The first is the more potent here.

Cc1c([C@H](OC(C)(C)C)C(=O)O)c(-c2ccc(Cl)cc2)c2cc(C)n3c2c1N1C(=O)OC[C@@H]1C3 [Compound I-146] and COC(=O)N1c2c(C)c([C@H](OC(C)(C)C)C(=O)O)c(-c3ccc(Cl)cc3)c3cc(C)n(c23)C[C@@H]1C [Compound I-065] are within 1.5-fold of each other in EC50: 16 nM for the first, 12 nM for the second.

Going from Cc1c([C@H](OC(C)(C)C)C(=O)O)c(-c2ccc(F)cc2)c2cc(C)n3c2c1N(C)[C@@H](C)C3 [Compound I-093] to COC(=O)N1CCn2c(C)cc3c(-c4ccc(F)cc4)c([C@H](OC(C)(C)C)C(=O)O)c(C)c1c32 [Compound I-132], the EC50 rises from 16 nM to 28 nM (1.8-fold). The first is the more potent here.

First: COc1ccnc(N2CCn3c(C)cc4c(-c5ccc(C)cc5)c([C@H](OC(C)(C)C)C(=O)O)c(C)c2c43)c1 [Compound I-277]
Second: COCC(=O)N1CCn2c(C)cc3c(-c4ccc(C)cc4)c([C@H](OC(C)(C)C)C(=O)O)c(C)c1c32 [Compound I-047]
The EC50 of the first is 3.3-fold lower: 14 nM for the first, 46 nM for the second. The first is the more potent here.

Compared with COc1cc(Oc2cnc(N3CCn4c(C)cc5c(-c6ccc(C)cc6)c([C@H](OC(C)(C)C)C(=O)O)c(C)c3c54)nc2)nc(OC)n1 [Compound I-346], Cc1c([C@H](OC(C)(C)C)C(=O)O)c(-c2cc(F)c(Cl)c(F)c2)c2cc(C)n3c2c1N(C)CC3 [Compound I-073] is 3.9-fold higher in EC50: 10 nM for the first, 39 nM for the second. The first is the more potent here.

With Cc1c([C@H](OC(C)(C)C)C(=O)O)c(-c2ccc(Cl)cc2)c2cc(C)n3c2c1N(S(C)(=O)=O)[C@@H](CCN1CCOCC1)C3 [Compound I-045] the EC50 was 58 nM.

same assay, conditions: T125A mutant virus (HIV-1 NL-432 IN gene), MT-4 cells, MTT; read-out: EC50 against T125A mutant virus

Compared with Cc1ccc(-c2c([C@H](OC(C)(C)C)C(=O)O)c(C)c3c4c2cc(C)n4CCN3c2ncc(N(C)S(C)(=O)=O)cn2)cc1 [Compound I-201], COc1cnc(N2CCn3c(C)cc4c(-c5ccc(Cl)cc5)c([C@H](OC(C)C)C(=O)O)c(C)c2c43)nc1 [Compound I-215] is 3.4-fold higher in EC50: 14 nM for the first, 47 nM for the second. The first is the more potent here.

Cc1ccc(-c2c([C@H](OC(C)(C)C)C(=O)O)c(C)c3c4c2cc(C)n4C2(CCCC2)CN3C)cc1 [Compound I-302] gave an EC50 of 43 nM.

same assay, conditions: read-out: EC50 against T125A mutant virus; T125A mutant virus (HIV-1 NL-432 IN gene), MT-4 cells, MTT

First: COC(=O)N1CC(C)n2c(C)cc3c(-c4ccc(Cl)cc4)c([C@H](OC(C)(C)C)C(=O)O)c(C)c1c32 (some centres unmarked) [Compound I-119]
Second: Cc1c([C@H](OC(C)(C)C)C(=O)O)c(-c2ccc(Cl)cc2)c2cc(C)n3c2c1N(C)C1COCC13 (some centres unmarked) [Compound I-137]
The EC50 of the first is 31-fold lower: 2.8 nM for the first, 86 nM for the second.

In the case of COC(=O)N1CC(C)n2c(C)cc3c(-c4ccc(Cl)cc4)c([C@H](OC(C)(C)C)C(=O)O)c(C)c1c32 (some centres unmarked) [Compound I-120], the EC50 is reported as 52 nM.
